One assay addresses T1, ULK2 kinase (Homo sapiens, UniProt Q8IYT8).
T1 construct: (residues 1-306 with N-terminal GST and His tag; ID NO: 2); purchased Signal Chem U02-11G
Description: Biochemical assay for ULK2 (coupled pyruvate kinase/lactate dehydrogenase assay). Conditions: 1 mM ATP, 1 nM ULK2; read-out: ULK2 (inhibition of biochemical activity), IC50. In outline: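 Continuous PK/LDH-coupled NADH oxidation assay (A340) with 1 nM ULK2, 200 μM ULKtide and 1 mM ATP in Tris pH 7.5, 15 mM MgCl2, 1% DMSO, read 6 h at 30° C. Rates from the 2-3 h window converted to percent inhibition against no-compound and known-inhibitor controls; IC50 by four-parameter sigmoidal fit.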

Assay [1] deals with ULK kinase substrate ATG13 (pS318-ATG13) in A549 (KRAS mutant) cells. Nature of the assay: pATG13 levels of mutant KRas A549 cells after treatment with ULK inhibitors in combination with trametinib (ELISA). The assay is classed as cell-based, human. The method in brief:
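A549 cells grown overnight were treated with a test-compound dose response plus trametinib at 250 nM final (or DMSO) overnight at 37° C. Lysates were assayed by total-ATG13 capture and biotinylated pS318-ATG13 detection ELISA (450 nm minus 540 nm background); % phosphorylation versus controls gave IC50 values.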

The target in the next assay is T2, LRRK2 kinase (Homo sapiens, UniProt Q5S007).
T2 construct: (residues 970-2528; ID NO; 3); purchased Thermo Fisher
T2 sequence (Q5S007 with tags, fused parts or gaps): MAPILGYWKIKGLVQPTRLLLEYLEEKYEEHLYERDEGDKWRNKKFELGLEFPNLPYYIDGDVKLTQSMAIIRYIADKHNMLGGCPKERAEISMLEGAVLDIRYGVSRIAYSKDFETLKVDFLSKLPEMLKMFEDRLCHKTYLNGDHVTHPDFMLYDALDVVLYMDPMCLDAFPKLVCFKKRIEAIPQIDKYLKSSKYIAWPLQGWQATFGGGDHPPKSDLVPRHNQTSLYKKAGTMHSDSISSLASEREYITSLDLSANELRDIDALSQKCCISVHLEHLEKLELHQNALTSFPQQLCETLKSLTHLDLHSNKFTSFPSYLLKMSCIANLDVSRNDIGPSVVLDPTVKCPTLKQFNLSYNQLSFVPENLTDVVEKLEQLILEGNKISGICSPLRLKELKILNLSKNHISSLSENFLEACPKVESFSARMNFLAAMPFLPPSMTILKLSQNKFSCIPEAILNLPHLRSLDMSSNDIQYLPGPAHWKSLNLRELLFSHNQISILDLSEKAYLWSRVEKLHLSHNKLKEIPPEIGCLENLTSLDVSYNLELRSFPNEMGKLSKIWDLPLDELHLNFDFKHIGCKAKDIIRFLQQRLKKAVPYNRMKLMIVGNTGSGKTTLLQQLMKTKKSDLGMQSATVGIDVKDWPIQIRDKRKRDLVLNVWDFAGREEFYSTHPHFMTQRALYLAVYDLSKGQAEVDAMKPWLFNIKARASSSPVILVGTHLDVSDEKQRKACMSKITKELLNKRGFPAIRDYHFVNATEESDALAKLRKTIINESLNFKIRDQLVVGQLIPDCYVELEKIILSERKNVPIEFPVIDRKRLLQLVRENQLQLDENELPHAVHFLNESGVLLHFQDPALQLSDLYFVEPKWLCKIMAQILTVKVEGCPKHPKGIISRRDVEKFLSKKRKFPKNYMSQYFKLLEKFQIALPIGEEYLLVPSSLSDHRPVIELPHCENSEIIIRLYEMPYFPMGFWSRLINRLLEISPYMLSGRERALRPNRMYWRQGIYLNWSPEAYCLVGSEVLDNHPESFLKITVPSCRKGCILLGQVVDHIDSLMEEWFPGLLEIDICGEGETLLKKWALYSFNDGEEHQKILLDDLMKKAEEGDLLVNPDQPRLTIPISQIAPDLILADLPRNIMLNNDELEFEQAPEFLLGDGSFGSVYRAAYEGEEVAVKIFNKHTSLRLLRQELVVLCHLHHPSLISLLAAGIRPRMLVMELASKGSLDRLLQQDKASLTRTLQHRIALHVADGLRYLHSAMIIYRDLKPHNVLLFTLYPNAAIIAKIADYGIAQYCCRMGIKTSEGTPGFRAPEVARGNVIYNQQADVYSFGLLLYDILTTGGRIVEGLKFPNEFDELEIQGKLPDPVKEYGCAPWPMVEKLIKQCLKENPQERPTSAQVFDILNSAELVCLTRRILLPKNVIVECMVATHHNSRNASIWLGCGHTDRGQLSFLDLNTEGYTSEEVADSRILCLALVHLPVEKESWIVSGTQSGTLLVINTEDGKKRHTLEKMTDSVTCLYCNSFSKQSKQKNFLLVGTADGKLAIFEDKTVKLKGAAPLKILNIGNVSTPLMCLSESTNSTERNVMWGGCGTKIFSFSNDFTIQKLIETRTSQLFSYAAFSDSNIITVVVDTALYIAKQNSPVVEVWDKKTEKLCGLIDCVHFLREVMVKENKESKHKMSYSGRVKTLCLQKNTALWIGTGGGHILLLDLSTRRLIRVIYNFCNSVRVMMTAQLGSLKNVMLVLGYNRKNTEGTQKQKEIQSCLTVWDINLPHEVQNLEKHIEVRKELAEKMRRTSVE
Nature of the assay: Biochemical assay for LRRK2 (coupled pyruvate kinase/lactate dehydrogenase assay). To be noted: 26.4 nM LRRK2, 1 mM ATP; read-out: LRRK2 (inhibition of LRRK2 kinase activity, IC50).

T1 sequence (Q8IYT8 with tags, fused parts or gaps): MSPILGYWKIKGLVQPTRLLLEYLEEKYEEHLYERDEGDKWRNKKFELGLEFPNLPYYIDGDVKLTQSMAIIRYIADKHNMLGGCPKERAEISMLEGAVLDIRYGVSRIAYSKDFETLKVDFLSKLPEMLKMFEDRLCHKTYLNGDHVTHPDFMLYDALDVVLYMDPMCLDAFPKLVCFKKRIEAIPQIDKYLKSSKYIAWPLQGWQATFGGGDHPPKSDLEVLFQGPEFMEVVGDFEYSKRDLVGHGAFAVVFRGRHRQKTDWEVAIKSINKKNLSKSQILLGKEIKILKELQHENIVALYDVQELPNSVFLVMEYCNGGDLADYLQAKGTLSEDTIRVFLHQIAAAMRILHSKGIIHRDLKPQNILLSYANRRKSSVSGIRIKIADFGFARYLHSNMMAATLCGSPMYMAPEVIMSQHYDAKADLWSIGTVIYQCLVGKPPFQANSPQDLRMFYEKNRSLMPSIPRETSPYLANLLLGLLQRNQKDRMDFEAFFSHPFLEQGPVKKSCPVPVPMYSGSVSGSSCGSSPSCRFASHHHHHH

Consider `CC/C(Nc1cnn(C2CN(C3CCC3)C2)c1)=C1/C(=O)Nc2ccc(C(=O)NC[C@H]3CCCO3)cc21` [Example 88], for which the IC50 – broadly, the concentration needed to halve the response being measured – on ULK2 kinase was 10 to 100 nM; in assay [1], 100 to 300 nM.

In the case of `CC/C(Nc1ccc(N2CC3CC2CN3C)cc1)=C1/C(=O)Nc2ccc(C(=O)NCC(F)(F)F)cc21` (centres unmarked) [Example 71], the IC50 on ULK2 kinase was 10 to 100 nM; in assay [1], at most 100 nM.

For `CC/C(Nc1cnn(C2CCN(C(C)C)CC2)c1)=C1/C(=O)Nc2ccc(C(=O)NCCOC(F)(F)F)cc21` [Example 82], the IC50 was at most 10 nM on ULK2 kinase and 300 to 600 nM in assay [1].

Turning to `CC/C(Nc1cnn(C2CN(C)C2)c1)=C1/C(=O)Nc2ccc(C(=O)NCCOC)cc21` [Example 89], the IC50 is 100 to 500 nM on ULK2 kinase and above 600 nM in assay [1].

For the compound `CC/C(Nc1ccc(N2CC3(CN(C)C3)C2)cc1)=C1/C(=O)Nc2ccc(C(=O)NC[C@H]3CCCO3)cc21` [Example 66], the IC50 on ULK2 kinase is 10 to 100 nM; in assay [1], at most 100 nM.

For the compound `CC/C(Nc1ccc(N2CC3(CN(C)C3)C2)cc1)=C1/C(=O)Nc2ccc(C(=O)NCC(C)C)cc21` [Example 65], the IC50 was 10 to 100 nM on ULK2 kinase and at most 100 nM in assay [1].

As for `CC/C(Nc1cnn(C2CCN(C(C)C)CC2)c1)=C1/C(=O)Nc2ccc(C(=O)NC[C@H]3CCCO3)cc21` [Example 1, (R,Z)-3-(1-((1-(1-isopropylpiperidin-4-yl)-1H-pyrazol-4-yl)amino)propylidene)-2-oxo-N-((tetrahydrofuran-2-yl)methyl)indoline-5-carboxamide], the figures for the IC50 (on ULK2 kinase; in assay [1]; at LRRK2 kinase) were 10 to 100 nM, 100 to 300 nM and 100 to 300 nM, respectively.

On to `CC/C(Nc1cnn(C)c1)=C1/C(=O)Nc2ccc(C(=O)NCC(F)(F)F)cc21` [Example 77], for which the IC50 is 10 to 100 nM at ULK2 kinase, 100 to 300 nM in assay [1] and at most 100 nM at LRRK2 kinase.

For the compound `CC/C(Nc1ccc(N2CC3(COC3)C2)cc1)=C1/C(=O)Nc2ccc(C(=O)NCC(F)(F)F)cc21` [Example 85], the IC50 on ULK2 kinase was 10 to 100 nM; in assay [1] it was 300 to 600 nM; on LRRK2 kinase it was at most 100 nM.

Turning to `CC/C(Nc1ccc(N2CC3CC(C2)N3C)cc1)=C1/C(=O)Nc2ccc(C(=O)NCC(C)C)cc21` [Example 67], the IC50 was 10 to 100 nM on ULK2 kinase and at most 100 nM in assay [1].

Take `CC/C(Nc1ccc(N2C[C@H]3CN(C)C[C@H]3C2)cc1)=C1/C(=O)Nc2ccc(C(=O)NCC(C)C)cc21` [Example 63]: the IC50 was 10 to 100 nM on ULK2 kinase and at most 100 nM in assay [1].

For the compound `CC/C(Nc1cnn(C2CN(C)C2)c1)=C1/C(=O)Nc2ccc(C(=O)NCC(C)C)cc21` [Example 87], the IC50 was in the range of 10 to 100 nM at ULK2 kinase and 300 to 600 nM in assay [1].

For `CC/C(Nc1ccc(N2CC3CC2CN3C)cc1)=C1/C(=O)Nc2ccc(C(=O)NC[C@H]3CCCO3)cc21` (some centres unmarked) [Example 70], the IC50 on ULK2 kinase was 10 to 100 nM; in assay [1], at most 100 nM.

With `CC/C(Nc1ccc(N2CCN(C(C)C)CC2)cn1)=C1/C(=O)Nc2cc(F)c(C(=O)NCC(F)(F)F)cc21` [Example 92], the IC50 on ULK2 kinase is 100 to 500 nM; in assay [1] it was at most 100 nM; on LRRK2 kinase, 300 to 600 nM.

Consider `CC/C(Nc1cnn(C2CN(C(C)C)C2)c1)=C1/C(=O)Nc2ccc(C(=O)NC[C@H]3CCCO3)cc21` [Example 91], for which the results for the IC50 (on ULK2 kinase; in assay [1]) were 10 to 100 nM and 100 to 300 nM, respectively.

In the case of `CC/C(Nc1ccc(-c2cn(C)nn2)cc1)=C1/C(=O)Nc2ccc(C(=O)NCC(F)(F)F)cc21` [Example 79], the IC50 on ULK2 kinase lay within 10 to 100 nM; in assay [1], 300 to 600 nM.

Take `CC/C(Nc1ccc(N2CCN(C)CC2)cn1)=C1/C(=O)Nc2ccc(C(=O)NCC(F)(F)F)cc21` [Example 75]: the IC50 on ULK2 kinase is at most 10 nM; in assay [1], 100 to 300 nM; on LRRK2 kinase, at most 100 nM.

Turning to `CC/C(Nc1ccc(N2CC3CC2CN3C)cc1)=C1/C(=O)Nc2ccc(C(=O)NCC(C)C)cc21` (centres unmarked) [Example 69], the IC50 at ULK2 kinase was 10 to 100 nM; in assay [1], at most 100 nM.

Regarding `CC/C(Nc1ccc(N2CCN(C)CC2)nc1)=C1/C(=O)Nc2ccc(C(=O)NCC(F)(F)F)cc21` [Example 74], the IC50 lay within 100 to 500 nM on ULK2 kinase and 100 to 300 nM in assay [1].

Regarding `CC/C(Nc1ccc(N2CC3CC(C2)N3C)cc1)=C1/C(=O)Nc2ccc(C(=O)NC[C@H]3CCCO3)cc21` [Example 68], the IC50 on ULK2 kinase was 10 to 100 nM; in assay [1] it was at most 100 nM.

Take `CC/C(Nc1cnn(C2CN(CC)C2)c1)=C1/C(=O)Nc2ccc(C(=O)NC[C@H]3CCCO3)cc21` [Example 90]: the IC50 at ULK2 kinase was in the range of 10 to 100 nM; in assay [1], 300 to 600 nM.

In the case of `CC/C(Nc1ccc(N2C[C@H]3CN(C)C[C@H]3C2)cc1)=C1/C(=O)Nc2ccc(C(=O)NC[C@H]3CCCO3)cc21` [Example 64], the IC50 at ULK2 kinase was 10 to 100 nM; in assay [1] it was at most 100 nM.

On to `CC/C(Nc1cnn(C2CCN(C(C)C)CC2)c1)=C1/C(=O)Nc2ccc(C(=O)NC[C@H]3CC(F)(F)CO3)cc21` [Example 80], for which the IC50 on ULK2 kinase was at most 10 nM; in assay [1], at most 100 nM.

As to `CC/C(Nc1ccc(-c2nc(C)no2)cc1)=C1/C(=O)Nc2ccc(C(=O)NCC(F)(F)F)cc21` [Example 78], the half-inhibitory concentration (IC50) at ULK2 kinase is 10 to 100 nM; in assay [1] it was 300 to 600 nM; at LRRK2 kinase, at most 100 nM.

As to `CC/C(Nc1cnn(C2CN(C)C2)c1)=C1/C(=O)Nc2ccc(C(=O)NCC(F)(F)F)cc21` [Example 86], the results for the IC50 (at ULK2 kinase; in assay [1]; at LRRK2 kinase) were 10 to 100 nM, 300 to 600 nM and 100 to 300 nM, respectively.

For the compound `CC/C(Nc1cnn(C2CCN(C(C)C)CC2)c1)=C1/C(=O)Nc2ccc(C(=O)NC[C@H]3CCCCO3)cc21` [Example 83], the IC50 at ULK2 kinase was 10 to 100 nM; in assay [1] it was at most 100 nM.

With `CC/C(Nc1cnn(C2CC3(C2)CN(C)C3)c1)=C1/C(=O)Nc2ccc(C(=O)NCC(F)(F)F)cc21` [Example 84], the values for the IC50 (on ULK2 kinase; in assay [1]; on LRRK2 kinase) were at most 10 nM, above 600 nM and at most 100 nM, respectively.

Values taken from patent publication US20240150368A1, “ULK INHIBITORS AND METHODS OF USE THEREOF” (Deciphera Pharmaceuticals, LLC, priority 2022, published 2024).
